Source: ChEMBL document CHEMBL3774316, “Design, synthesis and anti-HIV-1 evaluation of hydrazide-based peptidomimetics as selective gelatinase inhibitors” (Bioorg Med Chem, 2016)

What was measured:
[1] = target: T1, Aminopeptidase N (Sus scrofa, UniProt P15145); assay: Inhibition of porcine microsomal aminopeptidase N preincubated for 30 mins using L-Leu-p-nitroanilide as substrate by UV-VIS spectrophotometer
T1 sequence (P15145 whole entry): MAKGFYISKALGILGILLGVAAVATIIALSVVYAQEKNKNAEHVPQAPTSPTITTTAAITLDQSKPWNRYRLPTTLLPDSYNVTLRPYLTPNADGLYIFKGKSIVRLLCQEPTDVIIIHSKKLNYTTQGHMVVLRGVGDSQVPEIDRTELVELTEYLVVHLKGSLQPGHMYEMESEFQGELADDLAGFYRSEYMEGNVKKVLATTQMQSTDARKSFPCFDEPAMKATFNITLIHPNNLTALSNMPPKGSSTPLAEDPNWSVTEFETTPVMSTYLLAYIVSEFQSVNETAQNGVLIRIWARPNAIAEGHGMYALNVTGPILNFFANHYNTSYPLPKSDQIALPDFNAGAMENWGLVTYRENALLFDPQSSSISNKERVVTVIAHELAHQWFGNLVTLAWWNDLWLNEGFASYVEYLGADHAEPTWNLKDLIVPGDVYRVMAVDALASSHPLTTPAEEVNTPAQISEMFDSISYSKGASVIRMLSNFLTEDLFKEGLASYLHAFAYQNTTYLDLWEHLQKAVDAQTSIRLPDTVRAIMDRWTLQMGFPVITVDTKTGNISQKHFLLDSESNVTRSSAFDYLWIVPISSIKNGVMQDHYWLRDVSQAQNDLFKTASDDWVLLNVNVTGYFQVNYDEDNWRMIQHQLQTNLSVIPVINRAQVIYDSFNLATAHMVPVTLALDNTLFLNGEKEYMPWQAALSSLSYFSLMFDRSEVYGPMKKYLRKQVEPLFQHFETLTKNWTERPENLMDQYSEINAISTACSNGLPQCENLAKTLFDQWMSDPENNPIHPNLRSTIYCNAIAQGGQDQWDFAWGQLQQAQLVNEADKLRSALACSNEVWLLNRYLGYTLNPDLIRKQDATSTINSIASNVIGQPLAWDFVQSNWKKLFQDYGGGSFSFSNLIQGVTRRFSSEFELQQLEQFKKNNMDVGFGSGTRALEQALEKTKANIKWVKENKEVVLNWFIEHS

[2] = system: Human immunodeficiency virus 1; assay: Antiviral activity against HIV1 3B infected in human C8166 cells assessed as cytopathic effect by counting the number of syncytia by microscopy; assay type: functional, organism-based; settings: Human immunodeficiency virus 1, 3B
[3] = Therapeutic index, ratio of CC50 for human C8166 cells to EC50 for HIV1 3B infected in human C8166 cells; assay type: cell-based; settings: read-out: Ratio CC50/EC50
[4] = target: 72 kDa type IV collagenase (Homo sapiens, UniProt P08253); assay: Inhibition of gelatinase A (unknown origin) after 30 mins using succinylated gelatin as substrate
72 kDa type IV collagenase, sequence (P08253 whole entry): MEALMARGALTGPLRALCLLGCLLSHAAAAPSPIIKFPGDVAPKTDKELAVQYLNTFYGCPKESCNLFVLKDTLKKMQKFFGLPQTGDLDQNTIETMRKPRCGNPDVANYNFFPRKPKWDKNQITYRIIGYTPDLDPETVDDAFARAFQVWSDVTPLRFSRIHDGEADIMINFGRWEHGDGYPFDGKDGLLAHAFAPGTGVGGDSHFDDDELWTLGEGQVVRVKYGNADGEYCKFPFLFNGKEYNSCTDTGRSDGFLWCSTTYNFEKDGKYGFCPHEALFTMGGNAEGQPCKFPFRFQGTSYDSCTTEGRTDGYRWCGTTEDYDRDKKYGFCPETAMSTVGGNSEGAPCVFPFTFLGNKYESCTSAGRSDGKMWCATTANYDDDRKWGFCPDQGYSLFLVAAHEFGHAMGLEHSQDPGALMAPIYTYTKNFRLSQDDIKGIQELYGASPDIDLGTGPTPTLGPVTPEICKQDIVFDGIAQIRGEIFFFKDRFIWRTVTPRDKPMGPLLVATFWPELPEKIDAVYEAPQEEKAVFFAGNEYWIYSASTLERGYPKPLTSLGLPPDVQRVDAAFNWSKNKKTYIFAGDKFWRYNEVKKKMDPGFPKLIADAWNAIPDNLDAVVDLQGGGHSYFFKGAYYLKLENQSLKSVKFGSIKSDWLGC

[5] = system: C8166; assay: Cytotoxicity against human C8166 cells after 72 hrs by MTT assay; assay type: functional; settings: C8166, 72 h
[6] = system: Human immunodeficiency virus 1; assay: Antiviral activity against HIV1 74V infected in human C8166 cells assessed as reduction in p24 antigen level incubated for 4 hrs followed by cell plating for 72 hrs by ELISA method; assay type: functional, organism-based; settings: Human immunodeficiency virus 1, 74V
[7] = system: Human immunodeficiency virus 1; assay: Antiviral activity against HIV1 3B infected in human C8166 cells assessed as reduction in p24 antigen level incubated for 2 hrs followed by cell plating for 72 hrs by ELISA method; assay type: functional, organism-based; settings: Human immunodeficiency virus 1, 3B
[8] = system: Human immunodeficiency virus 1; assay: Antiviral activity against HIV1 A17 infected in human C8166 cells assessed as reduction in p24 antigen level incubated for 4 hrs followed by cell plating for 72 hrs by ELISA method; assay type: functional, organism-based; settings: Human immunodeficiency virus 1, A17, C8166

Row | IC50 [1] | EC50 [2] | IC50 [4] | EC50 [6] | EC50 [7] | EC50 [8] | SMILES | selectivity ratio [3] | CC50 [5]
1 | > 1000 µM | 32.9 µM | 0.24 µM | – | – | – | Cc1ccc(S(=O)(=O)N2CC3(C[C@H]2C(=O)N/N=C/c2ccccc2[N+](=O)[O-])SCCS3)cc1 | 1.9 | 65 µM
2 | > 1000 µM | 28 µM | 0.41 µM | 30.6 µM | 33.4 µM | 18.3 µM | Cc1ccc(S(=O)(=O)N2CC3(C[C@H]2C(=O)N/N=C/c2ccccc2Br)SCCS3)cc1 | 6.3 | 177 µM
3 | > 1000 µM | 30.3 µM | 0.64 µM | 93.6 µM | 149 µM | 18.2 µM | Cc1ccc(S(=O)(=O)N2CC3(C[C@H]2C(=O)N/N=C/c2ccccc2Cl)SCCS3)cc1 | > 13.3 | > 404 µM
4 | 644 µM | 42.1 µM | 246 µM | – | – | – | Cc1nc2ccccc2n(CC(=O)N/N=C/c2ccc([N+](=O)[O-])cc2)c1=O | > 7.7 | > 548 µM
5 | > 1000 µM | 51.1 µM | 28.5 µM | 30 µM | 69.6 µM | 11.4 µM | COc1ccccc1/C=N/NC(=O)[C@@H]1CC2(CN1S(=O)(=O)c1ccc(C)cc1)SCCS2 | 7.6 | 388 µM
6 | > 1000 µM | 239 µM | – | – | – | – | Cc1ccc(S(=O)(=O)N2CC3(C[C@H]2C(=O)NN)SCCS3)cc1 | > 2.2 | > 519 µM
7 | > 1000 µM | 37.7 µM | 5.52 µM | 56.3 µM | 75.6 µM | 74 µM | Cc1ccc(S(=O)(=O)N2CC3(C[C@H]2C(=O)N/N=C/c2ccc(N(C)C)cc2)SCCS3)cc1 | > 10.5 | > 397 µM
8 | > 1000 µM | 38.8 µM | 1.89 µM | – | – | – | Cc1ccc(S(=O)(=O)N2CC3(C[C@H]2C(=O)N/N=C/c2ccccc2F)SCCS3)cc1 | 7.2 | 280 µM
9 | > 1000 µM | 38.5 µM | 210 µM | 96 µM | 65.1 µM | 38.7 µM | COc1cc(/C=N/NC(=O)[C@@H]2CC3(CN2S(=O)(=O)c2ccc(C)cc2)SCCS3)cc(OC)c1OC | 8.5 | 327 µM
10 | > 1000 µM | 16 µM | 1.05 µM | 5.07 µM | 3.89 µM | 9.94 µM | Cc1ccc(S(=O)(=O)N2CC3(C[C@H]2C(=O)N/N=C/c2cccc([N+](=O)[O-])c2)SCCS3)cc1 | > 24.6 | > 395 µM
11 | 307 µM | 51.3 µM | 38.6 µM | – | – | – | Cc1ccc(/C=N/NC(=O)Cn2c(=O)c(C)nc3ccccc32)cc1 | 5.1 | 262 µM
12 | 243 µM | 126 µM | 74.9 µM | – | – | – | COc1ccc(/C=N/NC(=O)Cn2c(=O)c(C)nc3ccccc32)c(OC)c1 | > 4.2 | > 526 µM
13 | 341 µM | 121 µM | 67 µM | – | – | – | Cc1nc2ccccc2n(CC(=O)N/N=C/c2ccccc2)c1=O | > 5.2 | > 625 µM
14 | 389 µM | 145 µM | 90.8 µM | – | – | – | C/C(=N\NC(=O)Cn1c(=O)c(C)nc2ccccc21)c1ccc([N+](=O)[O-])cc1 | > 3.6 | > 528 µM
15 | 80.9 µM | 2.79 µM | 7.17 µM | 3.48 µM | 6.05 µM | 2.46 µM | COc1cccc(/C=N/NC(=O)Cn2c(=O)c(C)nc3ccccc32)c1O | 41.3 | 115 µM
16 | > 1000 µM | 40.5 µM | 36.8 µM | > 200 µM | 39.3 µM | > 200 µM | Cc1ccc(/C=N/NC(=O)[C@@H]2CC3(CN2S(=O)(=O)c2ccc(C)cc2)SCCS3)cc1 | > 10.4 | > 421 µM
17 | 449 µM | 32.2 µM | 81 µM | – | – | – | Cc1nc2ccccc2n(CC(=O)N/N=C/c2ccc(Cl)cc2)c1=O | > 17.5 | > 565 µM
18 | 331 µM | 159 µM | 64.3 µM | – | – | – | Cc1nc2ccccc2n(CC(=O)N/N=C/c2ccc(N(C)C)cc2)c1=O | 2.2 | 355 µM

The remaining lines, values behind:

Row | SMILES | IC50 [1] | EC50 [2] | IC50 [4] | EC50 [6] | EC50 [7] | EC50 [8] | selectivity ratio [3] | CC50 [5]
19 | C/C(=N\NC(=O)Cn1c(=O)c(C)nc2ccccc21)c1ccccc1Cl | 439 µM | > 543 µM | 112 µM | – | – | – | – | > 543 µM
20 | COc1ccc(/C=N/NC(=O)Cn2c(=O)c(C)nc3ccccc32)cc1OC | 481 µM | 81 µM | 28.8 µM | – | – | – | > 6.5 | > 526 µM
21 | C/C(=N\NC(=O)Cn1c(=O)c(C)nc2ccccc21)c1ccc(Cl)cc1 | 125 µM | > 543 µM | 13.2 µM | – | – | – | – | > 543 µM
22 | COc1ccc(/C=C/C(=O)N2C[C@@H](NC(=O)c3cccnc3)C[C@H]2C(=O)NO)cc1OC | 117 µM | 33 µM | – | – | – | – | > 13.8 | > 454 µM
23 | Cc1cn([C@H]2C[C@H](N=[N+]=[N-])[C@@H](CO)O2)c(=O)[nH]c1=O [ZIDOVUDINE] | – | 0.00794 µM | – | 0.00152 µM | 0.00436 µM | – | 589000 | 4680 µM
24 | C/C(=N\NC(=O)Cn1c(=O)c(C)nc2ccccc21)c1cccc(Cl)c1 | > 1000 µM | > 543 µM | 567 µM | – | – | – | – | > 543 µM
25 | CC(=O)NNC(=O)Cn1c(=O)c(C)nc2ccccc21 | 328 µM | > 730 µM | > 500 µM | – | – | – | – | > 730 µM
26 | Cc1nc2ccccc2n(CC(=O)NNC(=O)c2ccc(Cl)cc2)c1=O | 272 µM | 169 µM | 34.8 µM | – | – | – | > 3.2 | > 540 µM
27 | Cc1nc2ccccc2n(CC(=O)NNC(=O)Cc2ccccc2)c1=O | 333 µM | 296 µM | 159 µM | – | – | – | > 1.9 | > 571 µM
28 | C/C(=N\NC(=O)Cn1c(=O)c(C)nc2ccccc21)c1ccccc1 | 99.9 µM | 54.9 µM | 9.39 µM | – | – | – | 8.9 | 491 µM
29 | Cc1nc2ccccc2n(CC(=O)N/N=C/Cc2ccccc2)c1=O | 223 µM | 82.8 µM | 36 µM | – | – | – | > 7.2 | > 599 µM
30 | COc1cc(/C=N/NC(=O)Cn2c(=O)c(C)nc3ccccc32)cc(OC)c1OC | 57.6 µM | 83 µM | 223 µM | – | – | – | > 5.9 | > 488 µM
31 | O=C1Nc2ccc(Cl)cc2[C@@](C#CC2CC2)(C(F)(F)F)O1 [EFAVIRENZ] | – | – | – | – | – | 184 µM | – | –
32 | Cc1nc2ccccc2n(CC(=O)NN)c1=O | 257 µM | > 862 µM | 98 µM | – | – | – | – | > 862 µM
33 | Cc1nc2ccccc2n(CC(=O)NNC(=O)c2ccccc2)c1=O | – | 273 µM | 187 µM | – | – | – | – | > 595 µM
34 | Cc1nc2ccccc2n(CC(=O)N/N=C/c2ccco2)c1=O | 103 µM | 301 µM | 17.2 µM | – | – | – | > 2.1 | > 645 µM
35 | Cc1nc2ccccc2n(CC(=O)NNC(=O)c2c(Cl)cccc2Cl)c1=O | 299 µM | 51.6 µM | 58.2 µM | – | – | – | 2.97 | 153 µM
